# How the values were obtained:
# [1] = Alkaloid partition coefficients, pH 9.0 (acetic acid opium extract and organic solvent, equal volumes)
# Experimental: Some experiments were conducted with solvents to investigate liquid extraction to purify or separate the alkaloids. In these experiments, the aliquot of solvent layer was allowed to evaporate to dryness prior to diluting to volume with the dilute acetic acid. The aliquots were evaporated in this manner to eliminate the effect of solvents on retention time and the peak shape of the chromatography assays. Partition coefficients were obtained by dividing the concentration of the alkaloid in the organic layer by the concentration of the alkaloid in the aqueous layer. The disappearance of the rag layer following liquid extraction was done by filing a mixing container, e.g., cylinder, with the aqueous solution and the solvent. The mixing container, e.g., cylinder is then sealed with a stopper and shook for a predetermined time interval at a certain rate and then recording the interface levels over time.
# The phases were allowed to separate, and aliquots of each layer were taken.
# [2] = Alkaloid partition coefficients, pH 3.0 (mixing cylinder liquid extraction of opium filtrate, HPLC assay of layers); format: physicochemical
# From the text: The next part of the experiment was to test various solvents to identify possible candidates for liquid extraction so that the alkaloids can be separated and purified. There was fifty (50) milliliters of filtrate and fifty (50) milliliters of solvent were charged to one hundred (100) milliliter mixing cylinders. The one hundred (100) milliliter cylinders were shaken for thirty (30) seconds at approximately one (1) shake per second. The one hundred (100) milliliter mixing cylinders were allowed to settle, and the locations of the bottom and top of the rag layer were recorded over time. The results for one trial of the hydrochloric acid extraction of opium is presented in Table 2, and the results of one trial of acetic acid extraction is presented in Table 3. The four solvents used were toluene, hexane, n-butanol (n-BuOH), and isopentyl alcohol (i-C5OH).
# After the mixing cylinder studies were completed, the layers were sampled for High Pressure Liquid Chromatography (HPLC) assay and partition coefficients were obtained for each of the systems.
# [3] = Stability of alkaloids in the acid digest of opium suspension at pH 3.0, room temperature; settings: pH 3.0, up to 96 hours
# Experimental: The purpose of Experiment I was to obtain side-by-side data of the performance of hydrochloric acid in relationship to acetic acid. The acid digestion occurred at room temperature for 96 hours. The opium suspensions were sampled at intervals, and assays were performed to test the rate of extraction of alkaloids from the opium.
# The opium was dispersed by adding one liter of deionized water and 238 grams of opium to the blender. The blender was processed on “puree.” This is at 14,046 RPM, or a Reynold's number of 725,791 for two (2) minutes. The slurry was divided between two Erlenmeyer flasks. A tar ball remained in the bottom of the blender. The next step was to add 100 milliliters of water. The blender was then set to “liquefy.” This is at 20,495 RPM, or a Reynold's number of 991,216 for thirty (30) seconds. There was not an even distribution between the two Erlenmeyer flasks. This was followed by returning all of the slurry to the blender and processed on “liquefy” for an additional ten (10) seconds. The slurry was then split between the two Erlenmeyer flasks. The slurry was very frothy in appearance. The pH of each Erlenmeyer flask was adjusted to 3.0. In one Erlenmeyer flask, the pH was adjusted with hydrochloric acid (37%), and in the other Erlemneyer flask, the pH was adjusted with glacial acetic acid. […]
# [4] = system BuOH/HCl (n-butanol, hydrochloric acid extract)
# [5] = system BuOH/HOAc (n-butanol, acetic acid extract)
# [6] = system CHCL3/HCl (chloroform, hydrochloric acid extract)
# [7] = system CHCL3/HOAc (chloroform, acetic acid extract)
# [8] = system I-pentyl/HCL (isopentyl alcohol, hydrochloric acid extract)
# [9] = system I-pentyl/HOAc (isopentyl alcohol, acetic acid extract)
smiles,measurement,setting,value
"COc1ccc2c3c1O[C@H]1[C@@H](O)C=C[C@H]4[C@@H](C2)N(C)CC[C@@]341 [Codeine, codeine]",Alkaloid partition coefficient,[1]; system BuOH/HOAc,18.9714
same,Alkaloid partition coefficient,[1]; system Hexane/HOAc,0.0735
same,Alkaloid partition coefficient,[1]; system I-pentyl/HOAc,19.6646
same,Alkaloid partition coefficient,[1]; system Toluene/HOAc,5.3686
same,Alkaloid partition coefficient (concentration in organic layer / concentration in aqueous layer),[2]; [4],0.1374
same,Alkaloid partition coefficient (concentration in organic layer / concentration in aqueous layer),[2]; [5],0.2277
same,Alkaloid partition coefficient (concentration in organic layer / concentration in aqueous layer),[2]; [6],0.0074
same,Alkaloid partition coefficient (concentration in organic layer / concentration in aqueous layer),[2]; [7],0.0341
same,Alkaloid partition coefficient (concentration in organic layer / concentration in aqueous layer),[2]; [8],0.0181
same,Alkaloid partition coefficient (concentration in organic layer / concentration in aqueous layer),[2]; [9],0.0319
same,Stability (loss of alkaloid) in solution,[3],does not appear to be any significant loss
"CN1CC[C@]23c4c5ccc(O)c4O[C@H]2[C@@H](O)C=C[C@H]3[C@H]1C5 [Morphine, morphine]",Portion of morphine originally present that decomposed,"after 24 hours, extraction with butanol at pH 9.0 (FIG. 3)",about half
same,Decomposition during the extraction step,"alkaline extraction with n-butanol and i-pentyl alcohol, pH 9.0, room temperature",decomposed
"COC1=CC=C2[C@H]3Cc4ccc(OC)c5c4[C@@]2(CCN3C)[C@H]1O5 [Thebaine, thebaine]",Alkaloid partition coefficient,[1]; system BuOH/HOAc,34.7434
same,Alkaloid partition coefficient,[1]; system Hexane/HOAc,1.8589
same,Alkaloid partition coefficient,[1]; system I-pentyl/HOAc,55.5035
same,Alkaloid partition coefficient,[1]; system Toluene/HOAc,154.6710
same,Alkaloid partition coefficient (concentration in organic layer / concentration in aqueous layer),[2]; [4],0.4312
same,Alkaloid partition coefficient (concentration in organic layer / concentration in aqueous layer),[2]; [5],0.6351
same,Alkaloid partition coefficient (concentration in organic layer / concentration in aqueous layer),[2]; [6],0.5363
same,Alkaloid partition coefficient (concentration in organic layer / concentration in aqueous layer),[2]; [7],1.5273
same,Alkaloid partition coefficient (concentration in organic layer / concentration in aqueous layer),[2]; [8],0.1053
same,Alkaloid partition coefficient (concentration in organic layer / concentration in aqueous layer),[2]; [9],0.1548
same,Stability (loss of alkaloid) in solution,[3],does not appear to be any significant loss

# From patent US7495098B2, “Extraction of alkaloids from opium” (Mallinckrodt Inc, priority 2004, dated 2009)
